Reference: US5817669A, “Compounds, processes for the preparation thereof and anti-tumor agents” (Dainippon Pharmaceutical Co., Ltd., priority 1994, dated 1998)
≈ marks a conversion by molar mass, not a printed value. Counter-ions that a name gives are not always drawn. Like-named read-outs stand apart in the source and are kept apart here.

How the values were obtained:
[1] = tested on: murine P388 lymphocytic leukemia cells; assay: In vitro anti-tumor activity against murine P388 lymphocytic leukemia cells (MTT, 72 h); assay type: cell-based; conditions: Mus musculus, read-out: IC50 (50% proliferation inhibitory concentration)
Outline: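 MTT assay, 72 h exposure; formazan dissolved in DMSO after centrifugation and supernatant removal. Absorbance read at 570 nm with 690 nm reference. IC50 (μg/ml) by least squares.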

[2] = tested on: KB human nasopharynx cancer; assay: In vitro anti-tumor activity against KB human nasopharynx cancer (MTT); assay type: cell-based; conditions: 72 h
Outline: (§1)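 500–2,000 cells per well were pre-cultured 20 h at 37° C, 5% CO2, then exposed to test compound for 72 h. MTT (5 mg/ml) was added for 4 h, supernatant removed and formazan dissolved in DMSO.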

HMV2 human melanoma = assay: In vitro anti-tumor activity against HMV-2 human melanoma (MTT); assay type: cell-based; conditions: HMV-2, 72 h
Outline: as §1

[3] = tested on: AZ521 human stomach cancer; assay: In vitro anti-tumor activity against AZ-521 human stomach cancer (MTT); assay type: cell-based; conditions: AZ-521, 72 h
Outline: as §1

[4] = tested on: MKN45 human stomach cancer; assay: In vitro anti-tumor activity against MKN45 human stomach cancer (MTT); assay type: cell-based
Outline: as §1

[5] = tested on: WiDr human colorectal cancer; assay: In vitro anti-tumor activity against WiDr human colorectal cancer (MTT); assay type: cell-based; conditions: 72 h
Outline: as §1

C33A human cervix cancer = assay: In vitro anti-tumor activity against C-33A human cervix cancer (MTT); assay type: cell-based; conditions: 72 h
Outline: as §1

A427 human lung cancer = assay: In vitro anti-tumor activity against A-427 human lung cancer (MTT); assay type: cell-based; conditions: A-427, 72 h
Outline: as §1

[6] = tested on: murine P388 lymphocytic leukemia cells; assay: Increases in life span of mice implanted with murine P388 lymphocytic leukemia cells; assay type: in vivo, SLC: BDF1 mice; conditions: Mus musculus, P388, ip, 720 h
[7] = tested on: colon 26 murine tumor cells; assay: Tumor growth inhibition effect on colon 26 murine tumor cells implanted mice; assay type: in vivo, SLC: CDF1 mice; conditions: Mus musculus, read-out: Tumor growth inhibition rate IR (%); for inhibition in vivo at 1.56 mg/kg: 1.56 mg/kg once a day
Outline: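 CDF1 female mice (7–9 weeks, 7 per group) implanted intracutaneously in the abdomen with 2% brei of colon 26 cells. Compound given ip once daily from day 1 to day 9. Tumor weight estimated from diameters on day 21 or 22; IR % = [1 − (treated MTW/control MTW)] × 100.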

Acute toxicity = conditions: mouse, in vivo, mice, 14th day
Experimental: Solutions of test compounds in predetermined concentrations were administered (0.1 ml/10 g body weight) to female BALB/c CrSlc mice (5 to 10 animals per one group, 10 weeks old) respectively, and, thus, LD50 values were calculated from the mortalities of the mice on the 14th day after the administration.

Solubility = conditions: for solubility relative to that of Compound 1-1 and 3: relative to Compound 1-1 and 3 (Z is hydrogen)
[8] = MKN-45, MKN45, 72 h, MTT, read-out: IC50
[9] = NCI criterion, ip, 1.56 mg/kg, read-out: Evaluation
[10] = NCI criterion, ip, 3.13 mg/kg, read-out: Evaluation
[11] = NCI criterion, ip, 6.25 mg/kg, read-out: Evaluation
[12] = NCI criterion, ip, 12.5 mg/kg, read-out: Evaluation
[13] = NCI criterion, ip, 25 mg/kg, read-out: Evaluation
[14] = ip, 1.56 mg/kg, days 1 and 5, in solution, read-out: ILS (%) (in solution)
[15] = ip, 3.13 mg/kg, days 1 and 5, in solution, read-out: ILS (%) (in solution)
[16] = ip, 3.13 mg/kg, days 1 and 5, in suspension, read-out: ILS (%) (in suspension)
[17] = ip, 6.25 mg/kg, days 1 and 5, in solution, read-out: ILS (%) (in solution)
[18] = ip, 12.5 mg/kg, days 1 and 5, in solution, read-out: ILS (%) (in solution)
[19] = ip, 12.5 mg/kg, days 1 and 5, in suspension, read-out: ILS (%) (in suspension)
[20] = ip, 25 mg/kg, days 1 and 5, in solution, read-out: ILS (%) (in solution)
[21] = Intraperitoneal administration (ip)
[22] = Colon 26, 504 h, ip, days 1-9, day 21 or 22
[23] = Intravenous administration (iv)
[24] = read-out: ILS (%) (in solution)

Row | Compound | IC50 ([1]; murine P388 cells, 72 h, MTT) | IC50 ([2]; KB, MTT, read-out: IC50) | IC50 (HMV2 human melanoma; MTT, read-out: IC50) | IC50 ([3]; MTT, read-out: IC50) | IC50 [4, 8] | IC50 ([5]; MTT, read-out: IC50) | IC50 (C33A human cervix cancer; C-33A, MTT, read-out: IC50) | IC50 (A427 human lung cancer; MTT, read-out: IC50) | ILS at 1.56 mg/kg [6, 9] | ILS at 3.13 mg/kg [6, 10] | ILS at 6.25 mg/kg [6, 11] | ILS at 12.5 mg/kg [6, 12] | ILS at 25 mg/kg [6, 13] | ILS at 1.56 mg/kg [6, 14] | ILS at 3.13 mg/kg [6, 15] | ILS at 3.13 mg/kg [6, 16] | ILS at 6.25 mg/kg [6, 17] | ILS at 12.5 mg/kg [6, 18] | ILS at 12.5 mg/kg [6, 19] | LD50 at 336 h (Acute toxicity; [23]) | other results
1 | CO[C@@H]1CN(c2ccc3c(=O)c(C(=O)O)cn(-c4nccs4)c3n2)C[C@H]1N (relative stereo) [Compound 2] | 0.0178 µg/mL (≈ 0.0459 µM) | 0.309 µg/mL (≈ 0.798 µM) | 0.382 µg/mL (≈ 0.986 µM) | 0.331 µg/mL (≈ 0.854 µM) | 0.579 µg/mL (≈ 1.49 µM) | 1.88 µg/mL (≈ 4.85 µM) | 0.314 µg/mL (≈ 0.81 µM) | 0.169 µg/mL (≈ 0.436 µM) | 20 to 74% | > 75% | > 75% | > 75% | > 75% | 50% | 88% | 63% | 100% | 125% | 138% | – | ILS at 50 mg/kg ([6]; NCI criterion, ip, read-out: Evaluation): > 75%; ILS at 25 mg/kg [6, 20]: 213%; ILS at 50 mg/kg ([6]; ip, days 1 and 5, in solution, read-out: ILS (%) (in solution)): > 275%; ILS at 50 mg/kg ([6]; ip, days 1 and 5, in suspension, read-out: ILS (%) (in suspension)): 238%; inhibition in vivo at 12.5 mg/kg ([7]; Colon 26, 504 h, ip, 12.5 mg/kg once a day, days 1-9, day 21 or 22): 79%; LD50 at 336 h (Acute toxicity; [21]): 135 mg/kg
2 | C[C@H](N)C(=O)NC1CCN(c2ccc3c(=O)c(C(=O)O)cn(-c4nccs4)c3n2)C1.Cl (stereo partly drawn) [Compound 3-1, 7-(3-L-alanylamino-1-pyrrolidinyl)-1,4-dihydro-4-oxo-1-(2-thiazolyl)-1,8-naphthyridine-3-carboxylic acid hydrochloride] | – | – | – | – | – | – | – | – | – | – | – | – | – | – | – | – | – | – | – | – | solubility relative to that of Compound 1-1 and 3 (Solubility): ≥ 10 times; solubility (Solubility; water): 79.4 mg/mL
3 | CNC1(C)CCN(c2ccc3c(=O)c(C(=O)O)cn(-c4nccs4)c3n2)C1 (centres unmarked) [Compound 4] | 0.0175 µg/mL (≈ 0.0454 µM) | 0.172 µg/mL (≈ 0.446 µM) | 0.187 µg/mL (≈ 0.485 µM) | 0.1 µg/mL (≈ 0.259 µM) | 0.199 µg/mL (≈ 0.516 µM) | 0.392 µg/mL (≈ 1.02 µM) | 0.144 µg/mL (≈ 0.374 µM) | 0.194 µg/mL (≈ 0.503 µM) | – | 20 to 74% | > 75% | > 75% | > 75% | – | 63% | 63% | 88% | 125% | 125% | > 100 mg/kg | ILS at 25 mg/kg [6, 20]: 150%; inhibition in vivo at 1.56 mg/kg [7, 22]: 64%; inhibition in vivo at 3.13 mg/kg ([7]; Colon 26, 504 h, ip, 3.13 mg/kg once a day, days 1-9, day 21 or 22): 89%
4 | CN[C@@H]1CN(c2ccc3c(=O)c(C(=O)O)cn(-c4nccs4)c3n2)C[C@H]1C (relative stereo) [Compound 5] | 0.0117 µg/mL (≈ 0.0304 µM) | 0.0805 µg/mL (≈ 0.209 µM) | 0.0944 µg/mL (≈ 0.245 µM) | 0.0433 µg/mL (≈ 0.112 µM) | 0.0978 µg/mL (≈ 0.254 µM) | 0.218 µg/mL (≈ 0.566 µM) | 0.106 µg/mL (≈ 0.275 µM) | 0.0927 µg/mL (≈ 0.24 µM) | 20 to 74% | > 75% | > 75% | > 75% | – | 50% | 113% | 88% | 150% | 188% | 188% | 66.7 mg/kg | inhibition in vivo at 1.56 mg/kg [7, 22]: 78%
5 | COC1CN(c2ccc3c(=O)c(C(=O)O)cn(-c4nccs4)c3n2)CC1N(C)C(=O)[C@H](C)N (stereo partly drawn) [Compound 1-1-3, 7-[trans-3-(N-L-alanylmethylamino)-4-methoxy-1-pyrrolidinyl]-1,4-dihydro-4-oxo-1-(2-thiazolyl)-1,8-naphthyridine-3-carboxylic acid hydrochloride] | – | – | – | – | – | – | – | – | – | – | – | – | – | – | – | – | – | – | – | – | solubility (Solubility; 0.1 m phosphate buffer, pH 7.2, aqueous buffer): > 234 mg/mL; solubility relative to that of Compound 1-1 and 3 (Solubility): ≥ 10 times; solubility (Solubility; water): > 98.7 mg/mL
6 | COc1cc([C@@H]2c3cc4c(cc3[C@@H](O[C@@H]3O[C@@H]5CO[C@@H](C)O[C@H]5[C@H](O)[C@H]3O)[C@H]3COC(=O)[C@H]23)OCO4)cc(OC)c1O [Compound H, Etoposide, reference compound] | – | – | – | – | – | – | – | – | – | – | – | – | – | – | – | – | – | – | – | 123 mg/kg | IC50 ([1]; P388, 72 h): 0.00849 µg/mL (≈ 0.0144 µM); IC50 [2]: 0.201 µg/mL (≈ 0.342 µM); IC50 (HMV2 human melanoma): 0.298 µg/mL (≈ 0.506 µM); IC50 [3]: 0.08 µg/mL (≈ 0.136 µM); IC50 ([4]; MKN-45, 72 h): 0.49 µg/mL (≈ 0.833 µM); IC50 [5]: 1.63 µg/mL (≈ 2.77 µM); IC50 (C33A human cervix cancer; C-33-A): 0.084 µg/mL (≈ 0.143 µM); IC50 (A427 human lung cancer): 0.095 µg/mL (≈ 0.161 µM); ILS at 1.56 mg/kg ([6]; read-out: Evaluation): 20 to 74%; ILS at 3.13 mg/kg ([6]; read-out: Evaluation): > 75%; ILS at 6.25 mg/kg ([6]; read-out: Evaluation): > 75%; ILS at 12.5 mg/kg ([6]; read-out: Evaluation): > 75%; ILS at 25 mg/kg ([6]; read-out: Evaluation): > 75%; ILS at 1.56 mg/kg [6, 24]: 50%; ILS at 3.13 mg/kg [6, 24]: 75%; ILS at 6.25 mg/kg [6, 24]: 100%; ILS at 12.5 mg/kg [6, 24]: 150%; ILS at 25 mg/kg [6, 24]: > 275%; inhibition in vivo at 12.5 mg/kg ([7]; Colon 26, ip, 504 h): 57%; LD50 at 336 h (Acute toxicity; [21]): 71 mg/kg
